ChEMBL document CHEMBL1201862, “PubChem BioAssay data set” (2004)
Active and inactive are the calls of the source.

Experiments:
[1] = biological target: DNA dC->dU-editing enzyme APOBEC-3A (Homo sapiens, UniProt P31941); test: Dose Response confirmation of small molecule APOBEC3A DNA Deaminase Inhibitors via a fluorescence-based single-stranded DNA deaminase assay. [Related pubchem assays (depositor defined):AID493011, AID493024]; format: functional
[2] = biological target: DNA dC->dU-editing enzyme APOBEC-3G (Homo sapiens, UniProt Q9HC16); format: functional;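 note: Dose-response counterscreen measuring inhibition of APOBEC3G DNA deaminase activity, run while confirming APOBEC3A inhibitors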
[3] = biological target: Histone-lysine N-methyltransferase NSD2 (Homo sapiens, UniProt O96028); format: biochemical
[4] = Luminescence Cell-Based Dose Retest to Confirm Inhibitors of Cancer Stem Cells. [Related pubchem assays (depositor defined):AID2717, AID2721]; format: functional; conditions: Homo sapiens
Beta-galactosidase = Beta-galactosidase (Escherichia coli, UniProt Q8VNN2); test: Dose response counterscreen for EBI2 assay utilizing the enzyme, b-galactosidase.; format: functional
[5] = biological target: Fructose-bisphosphate aldolase (Mycobacterium tuberculosis, UniProt P9WQA3); test: Fluorescence-based biochemical high throughput dose response assay for inhibitors of the fructose-bisphosphate aldolase (FBA) of M. tuberculosis.; format: functional
[6] = Late stage assay provider results from the probe development effort to identify inhibitors of the Plasmodium falciparum M17 Leucine Aminopeptidase (M17LAP): radiolabel-based cell-based dose response assay to identify compounds that inhibit P. falciparum growth in RBCs Set 2.; format: functional
Vero = test: viability loss in Vero cells – cell-based, plate reader, cherry-pick samples, cytotoxicity control, dose response (AID 687020); format: functional; conditions: Chlorocebus sabaeus
Albumin = Albumin (Bos taurus, UniProt P02769); test: Counterscreen for inhibitors of T-cell receptor (TCR)-CD3 interaction: Fluorescence-based biochemical high throughput dose response assay to identify inhibitors of T-cell receptor (TCR)-CD3 interaction using a TAMRA-labeled BSA probe.; format: functional
A549 = test: viability loss in A549 cells – cell-based, plate reader, cherry-pick samples, cytotoxicity control, dose response (AID 687028); format: functional; conditions: Homo sapiens

Fructose-bisphosphate aldolase, sequence (P9WQA3 whole entry): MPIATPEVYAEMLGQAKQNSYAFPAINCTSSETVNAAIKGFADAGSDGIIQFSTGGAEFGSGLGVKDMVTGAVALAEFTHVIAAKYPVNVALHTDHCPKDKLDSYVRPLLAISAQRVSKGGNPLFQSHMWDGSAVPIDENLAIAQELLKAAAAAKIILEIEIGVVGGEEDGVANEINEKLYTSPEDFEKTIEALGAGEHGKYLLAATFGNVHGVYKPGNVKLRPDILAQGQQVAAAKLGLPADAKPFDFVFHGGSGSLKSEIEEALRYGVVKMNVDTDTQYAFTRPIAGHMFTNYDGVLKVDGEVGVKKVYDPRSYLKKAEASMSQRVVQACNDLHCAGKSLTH
Beta-galactosidase, sequence (Q8VNN2 whole entry): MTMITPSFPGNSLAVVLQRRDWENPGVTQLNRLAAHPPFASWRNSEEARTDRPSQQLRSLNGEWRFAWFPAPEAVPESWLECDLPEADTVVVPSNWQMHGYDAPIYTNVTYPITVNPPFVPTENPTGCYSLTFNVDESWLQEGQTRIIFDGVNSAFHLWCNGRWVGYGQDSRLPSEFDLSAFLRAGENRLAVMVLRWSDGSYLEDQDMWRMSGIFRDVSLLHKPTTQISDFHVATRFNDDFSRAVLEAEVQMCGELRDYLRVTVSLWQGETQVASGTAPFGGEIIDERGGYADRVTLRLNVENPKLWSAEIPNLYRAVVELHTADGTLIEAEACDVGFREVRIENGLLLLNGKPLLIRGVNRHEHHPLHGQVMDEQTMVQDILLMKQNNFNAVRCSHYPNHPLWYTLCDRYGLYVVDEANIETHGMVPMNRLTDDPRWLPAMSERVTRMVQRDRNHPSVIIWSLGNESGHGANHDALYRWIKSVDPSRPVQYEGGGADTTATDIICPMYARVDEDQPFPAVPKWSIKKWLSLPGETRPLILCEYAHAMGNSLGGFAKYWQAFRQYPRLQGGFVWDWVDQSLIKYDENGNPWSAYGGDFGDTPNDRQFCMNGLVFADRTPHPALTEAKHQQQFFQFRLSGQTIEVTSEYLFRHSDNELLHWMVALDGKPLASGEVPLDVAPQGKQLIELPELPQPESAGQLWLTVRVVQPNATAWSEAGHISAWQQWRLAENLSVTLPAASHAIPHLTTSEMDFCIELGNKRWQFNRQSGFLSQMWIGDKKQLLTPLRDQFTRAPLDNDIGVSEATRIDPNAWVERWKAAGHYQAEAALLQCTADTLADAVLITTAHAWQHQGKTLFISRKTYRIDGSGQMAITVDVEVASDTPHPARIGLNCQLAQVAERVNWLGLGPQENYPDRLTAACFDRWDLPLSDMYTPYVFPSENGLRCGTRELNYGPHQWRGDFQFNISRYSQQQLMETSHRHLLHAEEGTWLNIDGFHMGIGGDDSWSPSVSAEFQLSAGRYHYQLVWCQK
Histone-lysine N-methyltransferase NSD2, sequence (O96028 whole entry): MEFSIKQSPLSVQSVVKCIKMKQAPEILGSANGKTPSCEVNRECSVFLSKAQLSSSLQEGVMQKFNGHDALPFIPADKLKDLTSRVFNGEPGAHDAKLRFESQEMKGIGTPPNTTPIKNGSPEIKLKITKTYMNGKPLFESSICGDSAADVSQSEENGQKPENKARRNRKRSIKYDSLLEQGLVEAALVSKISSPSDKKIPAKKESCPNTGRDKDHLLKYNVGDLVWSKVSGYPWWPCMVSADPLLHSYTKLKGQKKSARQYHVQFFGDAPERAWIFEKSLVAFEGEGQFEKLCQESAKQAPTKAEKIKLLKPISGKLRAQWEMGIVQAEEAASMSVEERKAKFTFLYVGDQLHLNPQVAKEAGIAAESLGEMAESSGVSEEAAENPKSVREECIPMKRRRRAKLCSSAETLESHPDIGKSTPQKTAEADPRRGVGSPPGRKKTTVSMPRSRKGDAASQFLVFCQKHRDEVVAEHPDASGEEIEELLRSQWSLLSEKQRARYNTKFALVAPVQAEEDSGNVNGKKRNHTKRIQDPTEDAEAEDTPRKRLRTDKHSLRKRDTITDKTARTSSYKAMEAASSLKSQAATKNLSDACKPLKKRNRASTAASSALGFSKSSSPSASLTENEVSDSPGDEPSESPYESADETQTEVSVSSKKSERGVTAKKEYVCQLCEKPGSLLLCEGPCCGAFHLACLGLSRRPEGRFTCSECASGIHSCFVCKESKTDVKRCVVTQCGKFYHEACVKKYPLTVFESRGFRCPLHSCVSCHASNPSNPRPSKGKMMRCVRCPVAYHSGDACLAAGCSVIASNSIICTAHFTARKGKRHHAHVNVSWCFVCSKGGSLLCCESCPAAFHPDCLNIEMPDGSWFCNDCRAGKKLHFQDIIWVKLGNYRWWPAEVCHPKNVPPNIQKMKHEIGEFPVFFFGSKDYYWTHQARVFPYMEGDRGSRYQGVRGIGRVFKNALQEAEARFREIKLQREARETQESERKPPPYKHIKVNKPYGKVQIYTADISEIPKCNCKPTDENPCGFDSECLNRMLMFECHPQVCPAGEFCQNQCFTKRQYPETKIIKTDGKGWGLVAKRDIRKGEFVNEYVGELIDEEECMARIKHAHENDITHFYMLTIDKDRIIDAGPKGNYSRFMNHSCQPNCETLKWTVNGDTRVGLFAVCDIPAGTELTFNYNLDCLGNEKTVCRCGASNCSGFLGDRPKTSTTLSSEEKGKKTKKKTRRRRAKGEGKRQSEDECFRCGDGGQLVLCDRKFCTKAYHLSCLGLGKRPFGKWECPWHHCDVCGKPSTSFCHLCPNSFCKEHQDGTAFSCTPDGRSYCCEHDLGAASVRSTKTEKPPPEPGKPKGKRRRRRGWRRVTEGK
DNA dC->dU-editing enzyme APOBEC-3G, sequence (Q9HC16 whole entry): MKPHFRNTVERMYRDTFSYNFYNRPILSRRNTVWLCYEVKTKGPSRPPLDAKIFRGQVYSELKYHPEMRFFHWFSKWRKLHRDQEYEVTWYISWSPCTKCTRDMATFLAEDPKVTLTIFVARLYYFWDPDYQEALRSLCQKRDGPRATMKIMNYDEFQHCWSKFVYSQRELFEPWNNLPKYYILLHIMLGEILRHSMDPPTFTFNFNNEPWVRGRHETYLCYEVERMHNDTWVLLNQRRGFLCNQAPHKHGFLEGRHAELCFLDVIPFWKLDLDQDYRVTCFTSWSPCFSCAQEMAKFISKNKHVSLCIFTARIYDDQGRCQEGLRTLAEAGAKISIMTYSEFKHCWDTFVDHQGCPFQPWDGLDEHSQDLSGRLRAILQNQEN
Albumin, sequence (P02769 whole entry): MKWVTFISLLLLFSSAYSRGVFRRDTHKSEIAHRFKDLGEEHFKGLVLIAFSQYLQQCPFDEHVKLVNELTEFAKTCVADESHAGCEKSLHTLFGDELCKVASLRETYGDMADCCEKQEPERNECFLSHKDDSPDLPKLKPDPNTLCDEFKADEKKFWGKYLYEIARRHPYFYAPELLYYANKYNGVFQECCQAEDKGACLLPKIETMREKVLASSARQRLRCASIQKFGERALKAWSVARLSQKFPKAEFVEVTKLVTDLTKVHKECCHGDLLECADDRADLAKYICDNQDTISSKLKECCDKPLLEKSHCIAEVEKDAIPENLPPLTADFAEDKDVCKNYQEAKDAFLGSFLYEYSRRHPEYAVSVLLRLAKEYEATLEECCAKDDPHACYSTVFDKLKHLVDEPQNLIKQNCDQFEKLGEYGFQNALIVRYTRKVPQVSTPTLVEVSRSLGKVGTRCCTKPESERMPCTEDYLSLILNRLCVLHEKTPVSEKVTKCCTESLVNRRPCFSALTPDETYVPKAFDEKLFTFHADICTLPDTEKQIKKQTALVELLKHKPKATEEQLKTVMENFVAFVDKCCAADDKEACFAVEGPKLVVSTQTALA
DNA dC->dU-editing enzyme APOBEC-3A, sequence (P31941 whole entry): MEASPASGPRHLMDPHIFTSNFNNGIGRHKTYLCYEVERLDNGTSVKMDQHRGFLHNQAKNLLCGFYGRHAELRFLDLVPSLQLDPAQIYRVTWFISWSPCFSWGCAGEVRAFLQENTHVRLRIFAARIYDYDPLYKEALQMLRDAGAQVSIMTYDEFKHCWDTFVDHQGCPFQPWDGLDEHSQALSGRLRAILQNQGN

Compound: Cc1cc(/C=C2\C(=O)NC(=O)N(c3cccc(F)c3)C2=O)c(C)n1-c1cc(C(=O)O)cc(C(=O)O)c1
- IC50 [1]: 16.8 µM (active)
- IC50 [2]: 27.4 µM (active)
- AC50 [3]: > 20 µM (inactive)

Compound: COC(=O)c1cc(=O)n(Cc2ccc(F)cc2)/c(=N/c2ccccc2)s1
- AC50 [4]: 4.82 µM (active)
- IC50 (Beta-galactosidase): > 80 µM (inactive)

Compound: COC1=Nc2ccccc2N2CCN=C12
- IC50 [5]: 2.07 µM (active)

Compound: CCCCc1ccc(CC(=O)NO)cc1
- IC50 [6]: 4.3 µM (active)

Compound: O=C(NNC(=O)c1ccccc1O)c1ccccc1O
- AC50 (Vero): 1.05 µM (active)
- IC50 (Albumin): > 93.9 µM (inactive)
- AC50 (A549): 2.46 µM (active)
